# Measured values taken from the supplement of paper PMC8882468.
# Tested on: HCI-016 (organoid from a triple-negative breast cancer xenograft)
# Test: CTG-3D luminescence at 96 h relative to day-0 seeding control (ratio to day 0); higher = more growth / less cytotoxicity; PDxO 3D drug screen, 96 h, CTG-3D normalised to day-0 seeding control.
# Conditions: 10 µM; days in culture: 199
row,SMILES,CTG-3D luminescence at 96 h
1,C[C@H](NC(=O)CCC(F)(F)F)C(=O)N[C@@H]1C(=O)N(CCO)c2ncccc2-c2ccccc21 [crenigacestat],1.57
2,COc1cccc2c1C(=O)c1c(O)c3c(c(O)c1C2=O)C[C@@](O)(C(=O)CO)C[C@@H]3O[C@H]1C[C@H](N)[C@H](O)[C@H](C)O1 [doxorubicin],0.232
3,C[C@]12CC[C@@H]3c4ccc(O)cc4C[C@@H](CCCCCCCCC[S+]([O-])CCCC(F)(F)C(F)(F)F)[C@H]3[C@@H]1CC[C@@H]2O (stereo partly drawn) [fulvestrant],1.62
4,Nc1ccn([C@@H]2O[C@H](CO)[C@@H](O)C2(F)F)c(=O)n1 [gemcitabine],0.112
5,C=CC(=O)N1CCC[C@@H](n2nc(-c3ccc(Oc4ccccc4)cc3)c3c(N)ncnc32)C1 [ibrutinib],1.21
6,CN(Cc1cnc2nc(N)nc(N)c2n1)c1ccc(C(=O)N[C@@H](CCC(=O)O)C(=O)O)cc1 [methotrexate],1.37
7,CC1(C)CCC(c2ccc(Cl)cc2)=C(CN2CCN(c3ccc(C(=O)NS(=O)(=O)c4ccc(N[C@H](CCN5CCOCC5)CSc5ccccc5)c(S(=O)(=O)C(F)(F)F)c4)cc3)CC2)C1 [navitoclax],0.827
8,NC(=O)c1cccc2cn(-c3ccc([C@@H]4CCCNC4)cc3)nc12 [niraparib],0.118

# Same assay, conditions: 100 µM; days in culture: 153
row,SMILES,CTG-3D luminescence at 96 h
1,C[C@H](NC(=O)CCC(F)(F)F)C(=O)N[C@@H]1C(=O)N(CCO)c2ncccc2-c2ccccc21 [crenigacestat],2.19
2,COc1cccc2c1C(=O)c1c(O)c3c(c(O)c1C2=O)C[C@@](O)(C(=O)CO)C[C@@H]3O[C@H]1C[C@H](N)[C@H](O)[C@H](C)O1 [doxorubicin],0.0122
3,C[C@]12CC[C@@H]3c4ccc(O)cc4C[C@@H](CCCCCCCCC[S+]([O-])CCCC(F)(F)C(F)(F)F)[C@H]3[C@@H]1CC[C@@H]2O (stereo partly drawn) [fulvestrant],1.86
4,Nc1ccn([C@@H]2O[C@H](CO)[C@@H](O)C2(F)F)c(=O)n1 [gemcitabine],0.0753
5,C=CC(=O)N1CCC[C@@H](n2nc(-c3ccc(Oc4ccccc4)cc3)c3c(N)ncnc32)C1 [ibrutinib],-0.00474
6,CN(Cc1cnc2nc(N)nc(N)c2n1)c1ccc(C(=O)N[C@@H](CCC(=O)O)C(=O)O)cc1 [methotrexate],1.39
7,CC1(C)CCC(c2ccc(Cl)cc2)=C(CN2CCN(c3ccc(C(=O)NS(=O)(=O)c4ccc(N[C@H](CCN5CCOCC5)CSc5ccccc5)c(S(=O)(=O)C(F)(F)F)c4)cc3)CC2)C1 [navitoclax],0.000169
8,NC(=O)c1cccc2cn(-c3ccc([C@@H]4CCCNC4)cc3)nc12 [niraparib],-0.00489

# Same assay, conditions: 100 µM; days in culture: 172
row,SMILES,CTG-3D luminescence at 96 h
1,C[C@H](NC(=O)CCC(F)(F)F)C(=O)N[C@@H]1C(=O)N(CCO)c2ncccc2-c2ccccc21 [crenigacestat],1.76
2,COc1cccc2c1C(=O)c1c(O)c3c(c(O)c1C2=O)C[C@@](O)(C(=O)CO)C[C@@H]3O[C@H]1C[C@H](N)[C@H](O)[C@H](C)O1 [doxorubicin],0.0359
3,C[C@]12CC[C@@H]3c4ccc(O)cc4C[C@@H](CCCCCCCCC[S+]([O-])CCCC(F)(F)C(F)(F)F)[C@H]3[C@@H]1CC[C@@H]2O (stereo partly drawn) [fulvestrant],1.63
4,Nc1ccn([C@@H]2O[C@H](CO)[C@@H](O)C2(F)F)c(=O)n1 [gemcitabine],0.0466
5,C=CC(=O)N1CCC[C@@H](n2nc(-c3ccc(Oc4ccccc4)cc3)c3c(N)ncnc32)C1 [ibrutinib],-0.00481
6,CN(Cc1cnc2nc(N)nc(N)c2n1)c1ccc(C(=O)N[C@@H](CCC(=O)O)C(=O)O)cc1 [methotrexate],1.41
7,CC1(C)CCC(c2ccc(Cl)cc2)=C(CN2CCN(c3ccc(C(=O)NS(=O)(=O)c4ccc(N[C@H](CCN5CCOCC5)CSc5ccccc5)c(S(=O)(=O)C(F)(F)F)c4)cc3)CC2)C1 [navitoclax],0.00877
8,NC(=O)c1cccc2cn(-c3ccc([C@@H]4CCCNC4)cc3)nc12 [niraparib],-0.00828

# Same assay, conditions: 100 µM; days in culture: 190
row,SMILES,CTG-3D luminescence at 96 h
1,C[C@H](NC(=O)CCC(F)(F)F)C(=O)N[C@@H]1C(=O)N(CCO)c2ncccc2-c2ccccc21 [crenigacestat],1.74
2,COc1cccc2c1C(=O)c1c(O)c3c(c(O)c1C2=O)C[C@@](O)(C(=O)CO)C[C@@H]3O[C@H]1C[C@H](N)[C@H](O)[C@H](C)O1 [doxorubicin],0.0242
3,C[C@]12CC[C@@H]3c4ccc(O)cc4C[C@@H](CCCCCCCCC[S+]([O-])CCCC(F)(F)C(F)(F)F)[C@H]3[C@@H]1CC[C@@H]2O (stereo partly drawn) [fulvestrant],1.07
4,Nc1ccn([C@@H]2O[C@H](CO)[C@@H](O)C2(F)F)c(=O)n1 [gemcitabine],0.0539
